Measured values: US10266497B2 (ABIDE THERAPEUTICS, INC., priority 2017, dated 2019)
pIC50: −log10 of the molar value.

Columns and labels:
MAGL [1] = target: T1, MAGL (Homo sapiens, UniProt Q99685); assay: In vitro competitive activity-based protein profiling, MAGL, human; conditions: for inhibition at 1 µM: read-out: MAGL % inh. 1 μM (human)
T1 sequence (Q99685 1-303): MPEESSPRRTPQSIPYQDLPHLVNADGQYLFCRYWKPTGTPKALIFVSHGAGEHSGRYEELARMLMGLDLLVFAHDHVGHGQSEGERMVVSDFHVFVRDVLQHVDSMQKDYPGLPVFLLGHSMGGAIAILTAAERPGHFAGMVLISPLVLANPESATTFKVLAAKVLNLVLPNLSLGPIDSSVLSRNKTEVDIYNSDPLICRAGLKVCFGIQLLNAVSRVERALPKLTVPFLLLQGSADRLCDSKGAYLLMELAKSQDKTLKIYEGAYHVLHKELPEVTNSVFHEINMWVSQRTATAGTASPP

MAGL [2] = target: T2, MAGL (Mus musculus, UniProt O35678); assay: In vitro competitive activity-based protein profiling, MAGL, mouse; conditions: read-out: MAGL % inh. 1 μM (mouse)
T2 sequence (O35678 1-303): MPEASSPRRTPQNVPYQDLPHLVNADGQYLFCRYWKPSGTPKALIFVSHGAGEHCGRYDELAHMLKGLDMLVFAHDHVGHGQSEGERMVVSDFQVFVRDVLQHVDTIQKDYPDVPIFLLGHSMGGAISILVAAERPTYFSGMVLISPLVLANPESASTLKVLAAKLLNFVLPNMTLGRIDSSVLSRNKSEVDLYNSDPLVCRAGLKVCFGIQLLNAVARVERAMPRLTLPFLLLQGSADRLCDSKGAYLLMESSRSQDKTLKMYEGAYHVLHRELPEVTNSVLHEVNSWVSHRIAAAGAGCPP

FAAH [3] = target: T3, FAAH (Homo sapiens, UniProt O00519); assay: In vitro competitive activity-based protein profiling, FAAH, human; conditions: for inhibition at 1 µM: read-out: FAAH % inh. 1 μM (human)
T3 sequence (O00519 1-579): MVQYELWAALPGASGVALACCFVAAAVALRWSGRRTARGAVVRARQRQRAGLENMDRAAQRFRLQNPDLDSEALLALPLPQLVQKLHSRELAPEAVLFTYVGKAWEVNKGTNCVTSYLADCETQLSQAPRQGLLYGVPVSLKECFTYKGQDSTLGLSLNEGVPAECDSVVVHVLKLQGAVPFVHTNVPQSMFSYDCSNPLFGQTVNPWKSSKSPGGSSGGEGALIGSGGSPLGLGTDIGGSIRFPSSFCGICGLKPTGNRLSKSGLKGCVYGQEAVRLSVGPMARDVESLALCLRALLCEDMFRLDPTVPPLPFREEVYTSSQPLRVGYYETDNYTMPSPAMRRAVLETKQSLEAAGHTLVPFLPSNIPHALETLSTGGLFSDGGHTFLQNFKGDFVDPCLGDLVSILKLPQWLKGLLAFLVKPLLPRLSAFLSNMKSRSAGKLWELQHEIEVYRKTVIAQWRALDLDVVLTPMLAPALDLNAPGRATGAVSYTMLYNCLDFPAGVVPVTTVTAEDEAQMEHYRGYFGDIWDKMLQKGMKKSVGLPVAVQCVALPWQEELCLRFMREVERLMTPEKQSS

FAAH [4] = target: T4, FAAH (Mus musculus, UniProt O08914); assay: In vitro competitive activity-based protein profiling, FAAH, mouse; conditions: read-out: FAAH % inh. 1 μM (mouse)
T4 sequence (O08914 1-579): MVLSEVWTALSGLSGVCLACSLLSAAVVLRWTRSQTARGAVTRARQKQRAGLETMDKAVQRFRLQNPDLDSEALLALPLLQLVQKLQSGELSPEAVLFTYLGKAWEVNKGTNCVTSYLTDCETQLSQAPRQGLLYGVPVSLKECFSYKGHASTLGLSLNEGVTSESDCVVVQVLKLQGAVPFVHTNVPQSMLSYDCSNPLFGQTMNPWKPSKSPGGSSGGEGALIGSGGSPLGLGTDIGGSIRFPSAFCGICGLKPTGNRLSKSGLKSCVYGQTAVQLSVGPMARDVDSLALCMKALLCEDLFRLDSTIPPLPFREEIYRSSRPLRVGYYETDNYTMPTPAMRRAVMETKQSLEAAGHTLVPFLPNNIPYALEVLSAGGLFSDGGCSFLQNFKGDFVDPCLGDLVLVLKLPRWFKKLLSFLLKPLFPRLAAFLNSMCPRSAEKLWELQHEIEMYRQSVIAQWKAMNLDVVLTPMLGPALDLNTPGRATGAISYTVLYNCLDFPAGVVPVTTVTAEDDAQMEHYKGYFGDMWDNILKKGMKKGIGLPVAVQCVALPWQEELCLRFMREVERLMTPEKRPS

MAGL [5] = target: T2, MAGL; assay: Mouse brain proteomes from inhibitor treated mice (oral gavage, sacrificed 4 h after administration); type: in vivo; design: mouse brain membrane fraction for mouse assays; from tissue; host or cells: mouse brain (membrane fraction in vitro; brain proteomes of treated C57Bl/6J mice in vivo); conditions: 5 mg/kg oral gavage, brain proteome 4 h after administration, read-out: MAGL % inh. 5 mg/kg (mouse)
FAAH [6] = target: T4, FAAH; assay: Mouse brain proteomes from inhibitor treated mice (oral gavage, sacrificed 4 h after administration), FAAH; type: in vivo; design: mouse brain membrane fraction for mouse assays; from tissue; host or cells: mouse brain (membrane fraction in vitro; brain proteomes of treated C57Bl/6J mice in vivo); conditions: 5 mg/kg oral gavage, brain proteome 4 h after administration, read-out: FAAH % inh. 5 mg/kg (mouse)

Structure (SMILES) | inhibition at 1 µM (MAGL [1]) [%] | inhibition at 1 µM (MAGL [2]) [%] | inhibition at 1 µM (FAAH [3]) [%] | inhibition at 1 µM (FAAH [4]) [%] | inhibition at 5 mg/kg (MAGL [5]) [%] | inhibition at 5 mg/kg (FAAH [6]) [%] | pIC50 (MAGL [1]) | pIC50 (FAAH [3])
NC(=O)C1CCN(c2cc(C(F)(F)F)ccc2CN2CCN(C(=O)n3ccc(C(=O)O)n3)CC2)CC1 [Example 113, 1-(4-(2-(4-carbamoylpiperidin-1-yl)-4-(trifluoromethyl)benzyl)piperazine-1-carbonyl)-1H-pyrazole-3-carboxylic acid] | > 75 | > 75 | 0 to 25 | 0 to 25 | 0 to 25 | 0 to 25 |  | 
CC1CCC(C)N1c1cc(C(F)(F)F)ccc1CN1CCN(C(=O)n2ccc(C(=O)O)n2)CC1 (centres unmarked) [Example 114, 1-(4-(2-(2,5-dimethylpyrrolidin-1-yl)-4-(trifluoromethyl)benzyl)piperazine-1-carbonyl)-1H-pyrazole-3-carboxylic acid] | > 75 | > 75 | 0 to 25 | 0 to 25 | 0 to 25 | 0 to 25 |  | 
O=C(O)c1ccn(C(=O)N2CC3CN(Cc4cccc(Oc5ccc(Cl)cc5)c4)CC3C2)n1 (centres unmarked) [Example 116, 1-(5-(3-(4-chlorophenoxy)benzyl)octahydro-pyrrolo[3,4-c]pyrrole-2-carbonyl)-1H-pyrazole-3-carboxylic acid] | > 75 | > 75 | > 75 | 0 to 25 | 0 to 25 | 0 to 25 | 6.00 to 7.00 | 6.00 to 7.00
O=C(O)c1ccn(C(=O)N2CCN(Cc3ccc(C(F)(F)F)cc3N3C4CCC3COC4)CC2)n1 [Example 118, 1-(4-(2-(3-oxa-8-azabicyclo[3.2.1]octan-8-yl)-4-(trifluoromethyl)benzyl)piperazine-1-carbonyl)-1H-pyrazole-3-carboxylic acid] | > 75 | > 75 | 0 to 25 | 0 to 25 | 0 to 25 | 0 to 25 |  | 
CC(=O)NC1CCN(c2cc(C(F)(F)F)ccc2CN2CCN(C(=O)n3ccc(C(=O)O)n3)CC2)CC1 [Example 119, 1-(4-(2-(4-acetamidopiperidin-1-yl)-4-(trifluoromethyl)benzyl)piperazine-1-carbonyl)-1H-pyrazole-3-carboxylic acid] | > 75 | > 75 | 0 to 25 | 0 to 25 | 0 to 25 | 0 to 25 |  | 
O=C(O)c1ccn(C(=O)N2CCN(Cc3ccc(C(F)(F)F)cc3N3CCC(O)CC3)CC2)n1 [Example 120, 1-(4-(2-(4-hydroxypiperidin-1-yl)-4-(trifluoromethyl)benzyl)piperazine-1-carbonyl)-1H-pyrazole-3-carboxylic acid] | > 75 | > 75 | 0 to 25 | 0 to 25 | 0 to 25 | 0 to 25 |  | 
O=C(O)c1ccn(C(=O)N2CCC(Oc3ccc(Cl)c(N4CCCC4)c3)CC2)n1 [Example 121, 1-(4-(4-chloro-3-(pyrrolidin-1-yl)phenoxy)piperidine-1-carbonyl)-1H-pyrazole-3-carboxylic acid] | > 75 | > 75 | 0 to 25 | 0 to 25 | 0 to 25 | 0 to 25 |  | 
O=C(O)c1ccn(C(=O)N2CC3CN(Cc4ccc(N5CCCC5)cc4C(F)(F)F)CC3C2)n1 (centres unmarked) [Example 123, 1-(5-(4-(pyrrolidin-1-yl)-2-(trifluoromethyl)benzyl)octahydro-pyrrolo[3,4-c]pyrrole-2-carbonyl)-1H-pyrazole-3-carboxylic acid] | > 75 | > 75 | 50 to 75 | > 75 | 0 to 25 | 0 to 25 |  | 
O=C(O)c1ccn(C(=O)N2CC3CN(Cc4cc(Cl)cc(C(F)(F)F)c4)CC3C2)n1 (centres unmarked) [Example 124, 1-(5-(3-chloro-5-(trifluoromethyl)benzyl)octahydro-pyrrolo[3,4-c]pyrrole-2-carbonyl)-1H-pyrazole-3-carboxylic acid] | > 75 | > 75 | 50 to 75 | > 75 | 0 to 25 | 25 to 50 |  | 6.00 to 7.00
Cc1cn(C(=O)N2CCC3(CCN(Cc4cc(Cl)ccc4C(F)(F)F)C3)CC2)nc1C(=O)O [Example 130, 1-(2-(5-chloro-2-(trifluoromethyl)benzyl)-2,8-diazaspiro[4.5]decane-8-carbonyl)-4-methyl-1H-pyrazole-3-carboxylic acid] | > 75 | > 75 | 50 to 75 | 50 to 75 | 0 to 25 | 0 to 25 |  | 6.00 to 7.00
O=C(O)c1nn(C(=O)N2CCN(Cc3cccc(Oc4ccc(Cl)cc4)c3)CC2)cc1Cl [Example 132, 4-chloro-1-(4-(3-(4-chlorophenoxy)benzyl)piperazine-1-carbonyl)-1H-pyrazole-3-carboxylic acid] | > 75 | > 75 | > 75 | > 75 | 0 to 25 | 0 to 25 |  | 
O=C(O)c1nn(C(=O)N2CCC3(CCN(Cc4cc(Cl)ccc4C(F)(F)F)C3)CC2)cc1Cl [Example 133, 4-chloro-1-(2-(5-chloro-2-(trifluoromethyl)benzyl)-2,8-diazaspiro[4.5]decane-8-carbonyl)-1H-pyrazole-3-carboxylic acid] | > 75 | > 75 | > 75 | > 75 | 0 to 25 | 0 to 25 |  | 6.00 to 7.00
Cc1cn(C(=O)N2CCC3(CC2)CN(Cc2ccc(C(F)(F)F)cc2N2CCCC2)C3)nc1C(=O)O [Example 135, 4-methyl-1-(2-(2-(pyrrolidin-1-yl)-4-(trifluoromethyl)benzyl)-2,7-diazaspiro[3.5]non-ane-7-carbonyl)-1H-pyrazole-3-carboxylic acid] | > 75 | > 75 | 0 to 25 | 0 to 25 | 0 to 25 | 0 to 25 |  | 
